{
  "source": "patent US20110008279A1",
  "about": "“Methods and Compositions Relating to Adhesins as Adjuvants” (priority 2005, published 2011)",
  "key": {"human macrophages [1]": {"test_system": "human macrophages", "assay": "Morphology of macrophages (light microscopy)", "type": "cell-based", "procedure": "DCs cultured for 5 days in 6-well plates (Costar) were treated with recombinant human IFN-γ (1000 U/ml) for 18 h before NadA (1.5 μM) or LPS (1 μg/ml) stimulation for 4 h. Control cultures were untreated cells or treated with IFN-γ alone.\nThe same experiment was also carried out using macrophages."}, "mo-DCs [2]": {"test_system": "mo-DCs", "assay": "Expression of maturation markers on mo-DCs (flow cytometry)", "type": "cell-based, human", "details": "for CD86 expression on co-stimulation with R-848: R-848 1 μM, NadA 1.5 μM", "procedure": "Reagents used were tested for low endotoxin contamination using the Limulus amoebocyte assay (Sigma). Dendritic cells were generated from human peripheral blood mononuclear cells (PBMC) as described previously. In brief, PBMC were isolated from buffy coats of healthy donors by Ficoll-Paque Plus density gradient centrifugation (Amersham Pharmacia Biotech AB). Separate monocyte and T-cell fractions were obtained from PBMCs by Percoll density gradient centrifugation (Amersham Pharmacia Biotech AB). […] DC were obtained by 6-d culture adherent monocytes in medium with 20 ng/ml IL-4 (5×10^6 units/mg, Peprotech) and 50 ng/ml GM-CSF (1×10^7 units/mg, Peprotech). Cytokines were added again on day 4 in RPMI-1640 medium supplemented with 10% FBS. […] After 24 h cells were harvested and analysed. Culture supernatants were collected frozen in liquid nitrogen and conserved at −80° C. for cytokine analysis.\nAfter differentiation, DC were routinely stained with phycoerytrin conjugated monoclonal antibodies to human CD14, CD1a, CD83, CD86 (B7.2), CD80 (B7.1), MHC II (HLA-DR), purchased from BD-Pharminghen and Caltag. In parallel, cells were stained with the isotype matched control mAb. Cells were immunostained with the proper dilution of PE-conjugated anti human monoclonal antibodies at 4° C. for 30 min in 100 μl of phosphate-buffered saline pH 7.2 (PBS, GIBCO BRL) containing 1% FBS and 0.1% NaN3 (FACS buffer). After washing, propidium iodide was added to exclude dead cells and cell fluorescence intensities of the gated populations were measured with a EPICS XL-MCL (Coulter) flow cytometer and analyzed with EXPO 32ADC XL 3COLOR or WinMDI 2.8. software. Data were collected on 10000-20000 events."}, "monocytes [3]": {"test_system": "monocytes", "assay": "Apoptosis and survival of monocytes (caspase-3 assay, MTT assay)", "type": "cell-based, human", "procedure": "A) Caspase-3 assay, B) MTT assay.\nThe survival effect of NadA on monocytes was investigated. […] Apoptosis was not increased after a 40 hour exposure to NadAΔ351-405 or LPS. […] NadA survival effect was compared with the action of LPS or medium alone."}, "Chang cells": {"test_system": "Chang cells", "assay": "NadA binding to Chang cells (heparin, competition with non-labelled NadA)", "design": "species or system human", "details": "NadA 600 nM, fluorescence microscopy", "procedure": "Chang and CHO-K1 cells were incubated for 3 h at 37° C. with Alexa^488-labeled NadAΔ351-405 (250 nM) in the presence or the absence of non-labelled NadAΔ351-405 (0, 1, 2.5 or 5 μM), washed and analyzed by FACS; results shown are the relative MFI values ±SE, n=3.\nChang cells were incubated at 37° C. for 3 h with NadA 600 nM and re-incubated 10 min at 37° C. with heparin."}, "monocytes [4]": {"test_system": "monocytes", "assay": "NadA binding to monocytes", "design": "species or system human", "procedure": "(§1) The graphs plot the mean fluorescence intensities (MFI) ±SD measured in monocytes that have been incubated with NadAΔ351-405-Alexa, at different concentrations (A), or with 100 nM NadAΔ351-405-Alexa in presence of increasing concentrations of unlabelled protein (B), for 3 hours at 37° C. or 0° C. The reported data are the average of three independent experiments repeated in triplicate.\nThe dose-dependent preferential association of NadA to CD14^+ monocytes was also confirmed by MFI analysis. Competition using non-labelled ligand ascertained whether NadA binding was specific (FIG. 12). […] Based on the molecular weight of the NadA monomer, this value is in fact ˜1 μM, since the recombinant protein used in the experiment is a homo-trimer."}, "human macrophages [5]": {"test_system": "human macrophages", "assay": "NadA binding to human macrophages", "details": "37° C.", "procedure": "as §1, with “human macrophages” for “monocytes”\nNadA binding to monocyte-derived macrophages was also investigated. A dose-dependent association of NadA to macrophages was confirmed by MFI analysis and competition by non-labelled ligand was used to ascertain whether NadA binding was specific."}, "mo-DCs [6]": {"target": "mo-DCs", "assay": "Alexa-NadAΔ351-405 binding to mo-DCs (flow cytometry, Scatchard analysis)", "design": "species or system human", "details": "Scatchard plot", "procedure": "In some cases, DCs primed or not with IFN-γ were treated at 37° C. for 1 hour with FCS/RPMI containing Bafilomycin A1 200 nM, incubated at 37° C. (in RPMI medium supplemented with 10% FBS and Bafilomycin A1) or 0° C. (in PBS supplemented with 10% FBS) for 3 hours with different concentrations (0.0375-5 μM) of Alexa-NadAΔ351-405 or NadA. Afterward cells were washed and suspended in FACS buffer for FACS analysis. Scatchard plots were constructed from data obtained from cell-associated mean fluorescence intensities due to cell-bound Alexa NadA were measured. The dissociation constant Kd and maximal binding capacities were then determined by Scatchard analyses."}, "human macrophages [7]": {"test_system": "human macrophages", "assay": "Surface markers of human macrophages", "type": "cell-based", "description": "The functional effect of NadA on human monocytes and macrophages was investigated using a soluble recombinant mutant lacking the membrane anchor and a full length protein expressed in E. coli OMV or N meningitidis OMV. To better define the immuno-modulatory activity of NadA, the cells were stimulated with protein plus or minus both microbial stimulus (LPS) and immunological stimulus (IFNγ).\nThe effect of NadAΔ351-405 on monocyte and macrophage cells was further investigated by measuring the expression of the antigen presentation marker MHC-II, the co-stimulatory molecules CD80 and CD86 and the cell adhesion molecule ICAM-1."}, "mo-DCs [8]": {"test_system": "mo-DCs", "assay": "Morphology of mo-DCs (light microscopy)", "type": "cell-based, human", "details": "IFN-γ priming 18 hours, NadAΔ351-405 1.5 μM, 3 hours"}},
  "note": "Values joined by “and” are separate entries in the source; they are usually repeats but may differ in a detail not shown here. Equal values may be shown once. Read-outs that look alike come from different tables or passages of the source.",
  "data": [
    {"substance": "NadAΔ351-405", "values": [
      {"measurement": "cell clustering compared to LPS treatment", "setting": "human macrophages [1]", "value": "reduced clustering"},
      {"measurement": "CD86 expression on co-stimulation with R-848", "setting": "mo-DCs [2]; no IFN-γ priming", "value": "addition of the two effects"},
      {"measurement": "CD86 expression on co-stimulation with R-848", "setting": "mo-DCs [2]; after IFN-γ priming, flagellin 10 μg/ml", "value": "maximal CD86 expression"},
      {"measurement": "CD83 level relative to that induced by LPS", "setting": "mo-DCs [2]; after IFN-γ priming", "value": "~50", "unit": "%"},
      {"measurement": "CD86 expression, dose response", "setting": "mo-DCs [2]; after IFN-γ priming", "value": "effectively induced CD86 also in the submicromolar concentration range"},
      {"measurement": "CD86 level", "setting": "mo-DCs [2]; after IFN-γ priming", "value": "reached the same value observed in LPS-treated cells"},
      {"measurement": "IFN-γ potentiation of NadA effect on CD86", "setting": "mo-DCs [2]; at higher NadA concentrations", "value": "2-3 fold"},
      {"measurement": "CD86 expression, dose response", "setting": "mo-DCs [2]; no IFN-γ priming", "value": "not different from control cells below 1 μM NadA"},
      {"measurement": "plasma membrane HLA-DR expression", "setting": "mo-DCs [2]; no IFN-γ priming", "value": "partially increased"},
      {"measurement": "CD83 expression", "setting": "mo-DCs [2]; no IFN-γ priming, 24 hour exposure, 1 μM / 1.5 μM", "value": "not increased"},
      {"measurement": "apoptotic effect compared with medium-treated monocytes", "setting": "monocytes [3]", "value": "four times less"},
      {"measurement": "apoptotic effect compared with the amount induced by LPS", "setting": "monocytes [3]", "value": "two times less"},
      {"measurement": "protein binding to Chang cells in the presence of heparin", "setting": "Chang cells", "value": "dose-dependent reduction"},
      {"measurement": "decrease of the signal associated to monocytes by excess non-labelled NadA", "setting": "monocytes [4]; 5 uM non-labelled, 125 nM Alexa-NadA, 37° C., BafA1", "value": "−50", "unit": "%"},
      {"measurement": "affinity (Kd) of association to monocyte", "setting": "monocytes [4]; NadA-I125 conjugate, Scatchard Plot", "value": "~3000", "unit": "nM"},
      {"measurement": "Kd of association to monocyte, value for the homo-trimer", "setting": "monocytes [4]; corrected because the recombinant protein is a homo-trimer", "value": "~1000", "unit": "nM"},
      {"measurement": "decrease of the signal associated to macrophages by non-labelled ligand", "setting": "human macrophages [5]", "value": "−50", "unit": "%"},
      {"measurement": "Kd", "setting": "mo-DCs [6]; read-out: Kd1, high affinity binding sites", "value": "50 to 100 nM and 90 nM"},
      {"measurement": "Kd", "setting": "mo-DCs [6]; read-out: Kd2, low affinity binding sites", "value": "3000 to 5000 nM and 4000 nM"},
      {"measurement": "ICAM-1 expression", "setting": "human macrophages [7]", "value": "increased"},
      {"measurement": "HLA-DR expression", "setting": "human macrophages [7]; IFN-γ co-stimulation", "value": "greatly enhanced"},
      {"measurement": "CD80 expression", "setting": "human macrophages [7]; co-stimulation with IFN-γ", "value": "increased"},
      {"measurement": "CD86 expression", "setting": "human macrophages [7]; co-stimulation with LPS", "value": "Partial stimulation"},
      {"measurement": "cell morphology", "setting": "mo-DCs [8]", "value": "some cells became elongated and tended to cluster"}
    ]}
  ]
}
